# Patent publication US20230109801A1 (Blue Oak Pharmaceuticals, Inc., priority 2020, published 2023)
# Structures can show the parent of a compound that is named as a salt.
# Tested on: mice
# Assay: SmartCube in vivo neuropharmacological behavioral assay
# Details: for minimal effective dose: Mus musculus, ip, dose having 50% or more total activity in SmartCube, i.p., read-out: MED (minimal effective dose); for AD: antidepressant, percent probability / AG: analgesic, percent probability / AP: antipsychotic, percent probability / AX: anxiolytic, percent probability / CE: cognitive enhancer, percent probability / HA: hallucinogenic, percent probability / MS: mood stabilizer, percent probability / PS, percent probability / SD: sedative hypnotic, percent probability / SE: side effects, percent probability / UN: uncharacterized CNS activity, percent probability / XG: anxiogenic, percent probability: SmartCube, i.p. 15 min before test, at the MED
# Outline: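 Mice dosed i.p. with compound in Pharmasolve (NMP) 15 min before automated video capture of behavior; doses e.g. 0.3–30 mg/kg. Behavioral signature compared with reference-drug classes, giving per-class probability (0–100, 0 = LOQ); MED = lowest dose with ≥50% total activity.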
Structure (SMILES),minimal effective dose [mg/kg],"AD: antidepressant, percent probability","AG: analgesic, percent probability","AP: antipsychotic, percent probability","AX: anxiolytic, percent probability","CE: cognitive enhancer, percent probability","HA: hallucinogenic, percent probability","MS: mood stabilizer, percent probability","PS, percent probability","SD: sedative hypnotic, percent probability","SE: side effects, percent probability","UN: uncharacterized CNS activity, percent probability","XG: anxiogenic, percent probability"
"CC1=C(C)C2c3ccccc3C1N2C(C)C [Compound 60, 9,10-Dimethyl-11-(propan-2-yl)-11-azatricyclo[6.2.1.0^2,7]undeca-2,4,6,9-tetraene hydrochloride]",10 to 30,++++ (50% ≤ X <1 00%),++ (5% ≤ X < 25%),+ (LOQ ≤ X < 5%),+ (LOQ ≤ X < 5%),+ (LOQ ≤ X < 5%),+ (LOQ ≤ X < 5%),+ (LOQ ≤ X < 5%),++ (5% ≤ X < 25%),+ (LOQ ≤ X < 5%),+ (LOQ ≤ X < 5%),+ (LOQ ≤ X < 5%),+ (LOQ ≤ X < 5%)
"Fc1cc2c(cc1F)C1CCC2N1 [Compound 7, 4,5-Difluoro-11-azatricyclo[6.2.1.0^2,7]undeca-2,4,6-triene hydrochloride]",> 30,++ (5% ≤ X < 25%),++ (5% ≤ X < 25%),+ (LOQ ≤ X < 5%),+++ (25% ≤ X < 50%),+ (LOQ ≤ X < 5%),+ (LOQ ≤ X < 5%),+ (LOQ ≤ X < 5%),+ (LOQ ≤ X < 5%),+ (LOQ ≤ X < 5%),++ (5% ≤ X < 25%),+ (LOQ ≤ X < 5%),+ (LOQ ≤ X < 5%)
"c1ccc2c(c1)C1CCC2N1C1CC1 [Compound 45, 11-Cyclopropyl-11-azatricyclo[6.2.1.0^2,7]undeca-2,4,6-triene hydrochloride]",10 to 30,++ (5% ≤ X < 25%),++ (5% ≤ X < 25%),++ (5% ≤ X < 25%),++ (5% ≤ X < 25%),++ (5% ≤ X < 25%),+ (LOQ ≤ X < 5%),+ (LOQ ≤ X < 5%),+ (LOQ ≤ X < 5%),+ (LOQ ≤ X < 5%),+ (LOQ ≤ X < 5%),++ (5% ≤ X < 25%),+ (LOQ ≤ X < 5%)
"CC(C)N1C2CCC1c1cc(F)c(F)cc12 [Compound 8, 4,5-difluoro-11-(propan-2-yl)-11-azatricyclo[6.2.1.0^2,7]undeca-2(7),3,5-triene hydrochloride]",10 to 30,+ (LOQ ≤ X < 5%),++ (5% ≤ X < 25%),+ (LOQ ≤ X < 5%),++ (5% ≤ X < 25%),+ (LOQ ≤ X < 5%),+ (LOQ ≤ X < 5%),+ (LOQ ≤ X < 5%),+ (LOQ ≤ X < 5%),++ (5% ≤ X < 25%),++++ (50% ≤ X <1 00%),+ (LOQ ≤ X < 5%),+ (LOQ ≤ X < 5%)
"COc1cccc2c1C1C=CC2N1 (stereo not shown) [Compound 16, 3-Methoxy-11-azatricyclo[6.2.1.0^2,7]undeca-2,4,6,9-tetraene hydrochloride]",> 30,+ (LOQ ≤ X < 5%),+ (LOQ ≤ X < 5%),+ (LOQ ≤ X < 5%),++ (5% ≤ X < 25%),+ (LOQ ≤ X < 5%),+ (LOQ ≤ X < 5%),+ (LOQ ≤ X < 5%),+ (LOQ ≤ X < 5%),+ (LOQ ≤ X < 5%),+ (LOQ ≤ X < 5%),++ (5% ≤ X < 25%),+ (LOQ ≤ X < 5%)
"CC1=CC2c3ccccc3C1N2C(C)C (stereo not shown) [Compound 62, 9-Methyl-11-(propan-2-yl)-11-azatricyclo[6.2.1.0^2,7]undeca-2,4,6,9-tetraene hydrochloride]",1 to 10,++ (5% ≤ X < 25%),++ (5% ≤ X < 25%),+ (LOQ ≤ X < 5%),++ (5% ≤ X < 25%),+ (LOQ ≤ X < 5%),+ (LOQ ≤ X < 5%),+ (LOQ ≤ X < 5%),+ (LOQ ≤ X < 5%),+ (LOQ ≤ X < 5%),+ (LOQ ≤ X < 5%),++ (5% ≤ X < 25%),+ (LOQ ≤ X < 5%)
"COCC(C)N1C2C=CC1c1ccccc12 (stereo not shown) [Compound 57, 11-(1-Methoxypropan-2-yl)-11-azatricyclo[6.2.1.0^2,7]undeca-2,4,6,9-tetraene hydrochloride]",> 30,++ (5% ≤ X < 25%),+ (LOQ ≤ X < 5%),+ (LOQ ≤ X < 5%),+ (LOQ ≤ X < 5%),+ (LOQ ≤ X < 5%),+ (LOQ ≤ X < 5%),+ (LOQ ≤ X < 5%),+ (LOQ ≤ X < 5%),+ (LOQ ≤ X < 5%),+ (LOQ ≤ X < 5%),+ (LOQ ≤ X < 5%),+ (LOQ ≤ X < 5%)
